Test results: US6699506B1, “Pharmaceutical composition with extended release of Milnacipran” (Pierre Fabre Medicament, priority 1996, dated 2004)
≈ marks a conversion by molar mass, not a printed value.

Key:
dopamine = conditions: cited from earlier work
serotonin = conditions: cited from earlier work
noradrenaline = conditions: cited from earlier work
physchem = conditions: water, aqueous solubility

Structure (SMILES)	effect on dopamine (dopamine)	inhibition of the capture of serotonin (serotonin)	bioavailability (in vivo) [%]	half-life (in vivo) [h]	inhibition of the capture of noradrenaline (noradrenaline)	solubility (physchem) [mg/mL]	activity of isomeric forms (activity of the isomers)
CCN(CC)C(=O)C1(c2ccccc2)CC1CN (stereo not shown) [Milnacipran]	no effect	mixed inhibition	> 85	7 to 9	mixed inhibition	800 (≈ 3250 mM)	–
CCN(CC)C(=O)[C@@]1(c2ccccc2)C[C@H]1CN [dextrorotatory form]	–	–	–	–	–	–	more active than the levorotatory form
